The source of these data is patent publication US11320350B2, “Method for agglutinating erythrocytes, method for separating erythrocytes, and hemagglutination reagent” (DENKA SEIKEN CO., LTD., priority 2016, dated 2022).

This assay has as its system erythrocytes in a whole blood sample. As to the kind of experiment: hemagglutination evaluation test: whole blood sample added to hemagglutination reagent, rate of agglutination of erythrocytes visually evaluated. Type of assay: cell-based. Also noted: key to Rate of agglutination: +++: Erythrocytes were instantaneously agglutinated into a sufficient size and the agglutinated erythrocytes were precipitated.; ++: Erythrocytes started to agglutinate after leaving to stand for a few seconds, and agglutinated erythrocytes were gradually precipitated.; +: Erythrocytes were agglutinated, but the agglutinates were very small and the agglutination was incomplete.; ±: Only very few erythrocytes were agglutinated.; −: Erythrocytes were hemolyzed without being agglutinated. Conditions: citric acid 100 mM in physiologic saline, pH3.0. Here is the method: To 71 mL of distilled water, 10 mL of 10 w/v % sodium taurodeoxycholate hydrate (TDOC), 10 mL of 1 M citric acid, and 9 mL of 10 w/v % sodium chloride were added to prepare a solution containing 100 mM citric acid, 1% TDOC, and 0.9% sodium chloride as final concentrations (hemagglutination reagent). A solution was also prepared in the similar manner except that TDOC and/or sodium chloride were not added (hemagglutination reagent), and effects of the presence and absence of the cholic acid-based surfactant and the salt and the pH range on agglutination of erythrocytes were compared.
After adding 60 μL of a whole blood sample to 400 μL of the hemagglutination reagent, the rate of agglutination of erythrocytes was visually evaluated. The rate of agglutination was evaluated as +++, ++, +, or ± in order of rapidity based on the criteria described below. Hemolysis without agglutination was evaluated as −.
The pH of the hemagglutination reagent was measured using a desktop pH meter (HORIBA) (similarly in the following Examples and Comparative Examples).
Various cholic acid-based surfactants (1% by weight) and citric acid (100 mM) were added to a physiologic saline to prepare hemagglutination reagents (pH3.0) and their abilities to agglutinate erythrocytes were compared.
After adding 60 μL of a whole blood sample to 400 μL of the hemagglutination reagent, the rate of agglutination of erythrocytes was evaluated. The rate of agglutination was evaluated as +++, ++, +, or ± in order of rapidity based on the criteria described below. Hemolysis without agglutination was evaluated as −. The following criteria were the same as those in Examples 1 to 4 and Comparative Examples 1-1 to 4-2.
Sodium taurodeoxycholate hydrate (TDOC) and citric acid (100 mM) were added to a physiologic saline to prepare hemagglutination reagents (pH3.0), and their abilities to agglutinate erythrocytes were compared in the concentration range of TDOC as shown in the table below.
After adding 60 μL of a whole blood sample to 400 μL of the hemagglutination reagent, the rate of agglutination of erythrocytes was evaluated. The rate of agglutination was evaluated as +++, ++, +, or ± in order of rapidity based on the criteria below. Hemolysis without agglutination was evaluated as −. The following criteria were the same as those in Examples 1 to 7 and Comparative Examples 1-1 to 4-2.

On to `C[C@H](CCC(=O)NCCS(=O)(=O)[O-])[C@H]1CC[C@H]2[C@@H]3CC[C@@H]4C[C@H](O)CC[C@]4(C)[C@H]3C[C@H](O)[C@]12C.O.[Na+]` [TDOC, sodium taurodeoxycholate hydrate], for which the Rate of agglutination result (Concentration of TDOC 0.1 wt %) is on record as “+++”, the Rate of agglutination result (Concentration of TDOC 0.5 wt %) is reported as “+++”, the Rate of agglutination result (Concentration of TDOC 1.0 wt %) is “+++” and the Rate of agglutination result (Concentration of TDOC 6.0 wt %) is on record as “+++”. Also, under “surfactant 1% by weight”, the “effect on hemagglutination (compared among cholic acid-based surfactants)” value is “most significant”.
